Source: ChEMBL document CHEMBL4130412, “Characterization of the Degradation Profile of Umbelliprenin, a Bioactive Prenylated Coumarin of a Ferulago Species” (J Nat Prod, 2017)

Experiments:
Format in all cases: physicochemical
[1] = Drug level treated with umbelliprenin under sunlight in EtOH solution after 6 days by 1H-NMR analysis; conditions: 144 h
[2] = Photostability of the compound assessed as parent compound remaining under sunlight exposed for 6 days in EtOH solution measured in presence of UV-A filter avobenzone by TLC method; conditions: read-out: Stability
[3] = Thermal stability of the compound assessed as compound degradation at 40 degC in EtOH solution after 48 hrs by HPLC analysis; conditions: read-out: Drug degradation
[4] = Photostability of the compound assessed as parent compound remaining under sunlight exposed for 3 days in EtOH solution measured in presence of UV-A filter avobenzone by TLC method; conditions: read-out: Stability
[5] = Photochemical stability of the compound assessed as compound degradation under sunlight using solid samples measured up to 96 hrs by HPLC analysis; conditions: read-out: Drug degradation
[6] = Stability of the compound assessed as compound degradation in 3% H2O2 solution at room temperature in EtOH solution after 24 hrs by HPLC analysis; conditions: 3% H2O2 solution in EtOH solution; read-out: Drug degradation
[7] = Thermal stability of the compound assessed as compound degradation at 37 degC in EtOH solution after 48 hrs by HPLC analysis; conditions: read-out: Drug degradation
[8] = Stability of the compound assessed as compound degradation in 0.1 M NaOH solution at 60 degC in EtOH solution after 96 hrs by HPLC analysis; conditions: 0.1 M NaOH solution in EtOH solution; read-out: Drug degradation
[9] = Stability of the compound assessed as compound degradation in 3% H2O2 solution at room temperature in EtOH solution after 96 hrs by HPLC analysis; conditions: 3% H2O2 solution in EtOH solution; read-out: Drug degradation
[10] = Photostability of the compound assessed as parent compound remaining under sunlight exposed for 6 days in EtOH solution measured in presence of antioxidant DL-alpha-tocopherol acetate by TLC method; conditions: read-out: Stability
[11] = Photostability of the compound assessed as parent compound remaining under sunlight exposed for 6 days in EtOH solution measured in presence of UV-A filter DHHB by TLC method; conditions: read-out: Stability
[12] = Photostability of the compound assessed as parent compound remaining under sunlight exposed for 6 days in EtOH solution measured in presence of UV-B filter octinoxate by TLC method; conditions: read-out: Stability
[13] = Stability of the compound assessed as compound degradation in 0.1 M NaOH solution at room temperature in EtOH solution after 96 hrs by HPLC analysis; conditions: 0.1 M NaOH solution in EtOH solution; read-out: Drug degradation
[14] = Photostability of the compound assessed as parent compound remaining under sunlight exposed for 3 days in EtOH solution measured in presence of antioxidant DL-alpha-tocopherol acetate by TLC method; conditions: read-out: Stability
[15] = Stability of the compound assessed as compound degradation in 0.1 M HCl solution at 60 to 80 degC using solid sample up to 96 hrs by HPLC analysis; conditions: buffer
[16] = Photostability of the compound assessed as parent compound remaining under sunlight exposed for 3 days in EtOH solution measured in presence of UV-B filter octinoxate by TLC method; conditions: read-out: Stability
[17] = Photochemical stability of the compound assessed as compound degradation under 254 nm UV-light exposure in EtOH solution measured after 24 hrs by HPLC analysis; conditions: read-out: Drug degradation
[18] = Stability of the compound assessed as compound degradation in 0.1 M HCl solution at room temperature in EtOH solution after 96 hrs by HPLC analysis; conditions: 0.1 M HCl solution in EtOH solution; read-out: Drug degradation
[19] = Stability of the compound assessed as compound degradation in 0.1 M NaOH solution at 60 to 80 degC using solid sample up to 96 hrs by HPLC analysis
[20] = Thermal stability of the compound at 40 degC in EtOH solution after 3 to 4 days by HPLC analysis
[21] = Photostability of the compound assessed as parent compound remaining under sunlight exposed for 3 days in EtOH solution measured in presence of UV-A filter DHHB by TLC method; conditions: read-out: Stability
[22] = Photostability of the compound assessed as parent compound remaining under sunlight exposed for 6 days in EtOH solution measured by TLC method; conditions: read-out: Stability
[23] = Stability of the compound assessed as compound degradation in 0.1 M HCl solution at 60 degC in EtOH solution after 24 hrs by HPLC analysis; conditions: 0.1 M HCl solution in EtOH solution; read-out: Drug degradation
[24] = Thermal stability of the compound at 37 degC in EtOH solution after 3 to 4 days by HPLC analysis
[25] = Stability of the compound assessed as compound degradation in 3% H2O2 solution at 40 degC in EtOH solution after 96 hrs by HPLC analysis; conditions: 3% H2O2 solution in EtOH solution; read-out: Drug degradation
[26] = Photostability of the compound assessed as parent compound remaining under sunlight exposed for 3 days in EtOH solution measured by TLC method; conditions: read-out: Stability
[27] = Thermal stability of the compound assessed as compound degradation at 80 degC in EtOH solution measured up to 96 hrs by HPLC analysis; conditions: read-out: Drug degradation
[28] = Stability of the compound assessed as compound degradation in 3% H2O2 solution at 40 degC in EtOH solution after 24 hrs by HPLC analysis; conditions: 3% H2O2 solution in EtOH solution; read-out: Drug degradation
[29] = Photochemical stability of the compound assessed as compound degradation under 254 nm UV-light exposure using solid samples measured up to 96 hrs by HPLC analysis; conditions: read-out: Drug degradation
[30] = Photochemical stability of the compound assessed as compound degradation under sunlight in EtOH solution measured after 4 days by HPLC analysis; conditions: read-out: Drug degradation
[31] = Thermal stability of the compound assessed as compound degradation at 37 to 80 degC using solid samples after 96 hrs by HPLC analysis; conditions: read-out: Drug degradation
[32] = Photochemical stability of the compound assessed as compound degradation under sunlight in EtOH solution measured after 24 hrs by HPLC analysis; conditions: read-out: Drug degradation

With `CC(C)=CCC/C(C)=C/CC/C(C)=C/COc1ccc2c(c1)OC(=O)[C@@H]1[C@@H]3C(=O)Oc4cc(OC/C=C(\C)CC/C=C(\C)CCC=C(C)C)ccc4[C@@H]3[C@H]21` the Drug metabolism [1] was “Metabolite_Detected”.

In the case of `CC(C)=CCC/C(C)=C/CC/C(C)=C/COc1ccc2ccc(=O)oc2c1` [UMBELLIPRENIN], the remaining at 144 h [2] is reported as 88%, the degraded at 48 h [3] is reported as 12.7% and the remaining at 72 h [4] is reported as 97%. The degraded at 96 h [5] was 64.7%, the degraded at 24 h [6] was 19.1% and the degraded at 48 h [7] was 1.8%. For the same compound, the degraded at 96 h [8] was 85%, the degraded at 96 h [9] was 41.6% and the remaining at 144 h [10] was 10%. It also gave a remaining at 144 h [11] of 98%, a remaining at 144 h [12] of 13% and a degraded at 96 h [13] of 85%. For the same compound, the remaining at 72 h [14] was 32%, the Stability [15] was “Stable” and the remaining at 72 h [16] was 56%. The degraded at 24 h [17] was 25.8%, the degraded at 96 h [18] was 22.2% and the Stability [19] was “Stable”. The Stability [20] was “Unstable”, the remaining at 72 h [21] was 100% and the remaining at 144 h [22] was 9%. The degraded at 24 h [23] was over 95%, the Stability [24] was “Unstable” and the degraded at 96 h [25] was 50.1%. It also gave a remaining at 72 h [26] of 35%, a degraded at 96 h [27] of 34% and a degraded at 24 h [28] of 39.4%. For the same compound, the degraded at 96 h [29] was 59.4%, the degraded at 96 h [30] was 91.6% and the degraded at 96 h [31] was 54.6 to 65.1%. The degraded at 24 h [32] was 70.4%.

In the case of `C/C1=C\COc2ccc3c(c2)OC(=O)C2C3C(CC/C(C)=C/CC1)C2(C)C` (stereo not drawn), the Drug metabolism [1] is reported as “Metabolite_Detected”.
